What was measured:
[1] = tested on: NP cells; experiment: Western blot of pCREB in NP cells of IFT88-/- or IFT88+/+ mice; type: cell-based, mouse
Protocol: Green fluorescent protein (GFP) labeled NP cells of notochordal origin were isolated from 15-day old Noto^Cre/+::ROSA26-lacZ^flox/flox male mice as previously described. The NP cells from 15-day old PTH1R^+/+ and PTH1R^−/−, IFT88^+/+ and IFT88^−/− male mice. Briefly, the cells were isolated from the NP region of IVDs in the spinal column from mid thoracic to lower lumbar region and digested initially with TrypLE Express (Gibco) for 30 minutes on shaker, followed by 0.25 mg/ml Collagense-P (Roche) for another […] at 37° C. The digested cells were washed twice with PBS, and cultured in α-MEM (Gibco) supplemented with 10% fetal calf serum (Atlanta Biologicals), and 1% penicillin—streptomycin (Mediatech) to 80-90% confluence at 37° C., 5% CO2 and 5% O2.
Western blot analyses were conducted on the protein lysates from in vitro cultured NP cells or NP tissues from mice at specific time points after PTH (1-34) treatment and human at different ages with lumbar disc degeneration. The protein extract was centrifuged, the concentration of supernatant evaluated by DC protein assay (Bio-Rad Laboratories), and then separated by SDS-PAGE and blotted on a polyvinylidene fluoride membrane (Bio-Rad Laboratories). Following incubation in specific antibodies, we detected proteins using an enhanced chemiluminescence kit (Amersham Biosciences). […]

[2] = tested on: NP tissues; experiment: Western blot of pSmad2 in NP tissue of aged mice; type: in vivo, mouse; details: NP tissues of 18-month-old mice
Protocol: Western blot analyses were conducted on the protein lysates from in vitro cultured NP cells or NP tissues from mice at specific time points after PTH (1-34) treatment and human at different ages with lumbar disc degeneration. The protein extract was centrifuged, the concentration of supernatant evaluated by DC protein assay (Bio-Rad Laboratories), and then separated by SDS-PAGE and blotted on a polyvinylidene fluoride membrane (Bio-Rad Laboratories). Following incubation in specific antibodies, we detected proteins using an enhanced chemiluminescence kit (Amersham Biosciences). We used specific antibodies recognizing rabbit CTGF (CCN2) (Abcam, 1:1000), Aggrecan (ACAN) (Abcan, 1:1000), p-Smad2 (Cell Signaling Technology Inc., 1:1000), Smad2 (Cell Signaling Technology Inc., 1:1000), GAPDH (Cell Signaling Technology Inc., 1:1000), CREB (Abcam, 1:2500), pCREB (Abcam, 1:2500), PTH1R PRB-635P (Covance, 1:100), PTH1R PRB-640P (Covance, 1:500) and goat integrin β6 (Santa Cruz, 1:500) to examine the protein concentrations in the lysates. Co-immunoprecipitation analyses were conducted on the nuclear and cytoplasmic protein extraction using NE-PER Nuclear and Cytoplasmic Extraction Kit (Pierce Thermo Scientific, 78833) from in vitro cultured NP cells treated with PTH (1-34) or vehicle.

[3] = tested on: 18-month-old mice; experiment: iPTH in aged mice: PPCT of IVD and L4 trabecular bone; type: in vivo, mouse; details: for IVD morphology: aged mice
Protocol: For the dosage screening experiments, 17 month old male C57BL/6J WT mice were assigned into four groups treated with different doses of PTH or vehicle; 20 μg/kg/d, 40 μg/kg/d and 80 μg/kg/d of human PTH (1-34) (Bachem Calif., Inc. King of Prussia, Pa., USA.) or vehicle groups. We chose the optimal dosage of PTH (1-34) for the rest of the experiment.
Propagation phase contrast micro-tomography (PPCT) based on the Synchrotron radiation scanning was performed at the BL13W1 biomedical beamline in the Shanghai Synchrotron Radiation Facility (SSRF) in China (FIG. 7A). To obtain high X-ray attenuation contrast images, the monochromatic X-ray energy was adjusted to 15 keV, the scanner was set at a voltage of 15 keV, exposure time set to 2.5 s, and the sample-to-detector distance (SDD) adjusted to 30 cm and a resolution of 3.7 μm per pixel. The images were reconstructed and analyzed using the GPU-CT-Reconstruction software (applied by the BL13W1 experimental station) and the VG Studio Max 3D software (version 2.1, Volume Graphics GmbH, Germany) respectively. The region of interest was defined to cover the whole L3-L4 compartment. The 3D quantitative analysis of IVDs was performed with the commercially available Image Pro Analyzer 3D software (Version 7.0, Media Cybernetics, Inc., USA). The 3D structural parameters analyzed for the mean height and volume and thickness distribution of IVDs. The trabecular bone of L4 was segmented from the bone marrow and analyzed to determine the trabecular bone volume fraction (BV/TV), trabecular thickness (Tb. Th), trabecular number (Tb. N) and trabecular separation (Tb. Sp).

[4] = tested on: 18-month-old mice; experiment: iPTH in aged mice: in vivo micro-MRI of lumbar IVDs; parameters: species or system mouse; details: iPTH injection
Protocol: In vivo Spinal IVD imaging was conducted with a horizontal 30-cm-bore 9.4T Bruker Biospec preclinical scanner equipped with custom-built, single-turn volume coil positioned orthogonal to the BO magnetic field. Anesthetization of mice was initiated with 4% isoflurane and maintained with a 2% isoflurane and oxygen mixture. Mice were placed supine on a tray and taped to minimize the motion artifacts. We acquired T2-weighted images using a relaxation enhancement (RARE) sequence with the following parameter: an echo time/repetition time (TE/TR) of 15.17 ms/3,000 ms, 35 slices at thickness of 0.35 mm, field of view (FOV) of 1.75 cm×1.75 cm and matrix size of 256×128. All T2-weighted images were processed to a final matrix size of 256×256 with an isotropic resolution of 0.068 mm pixel-1. For quantification of signal intensity as an indicator of disc tissue hydration, the region of interest at L3-L4 level in each group was selected and measured using Image-Pro Plus Software version 6.

[5] = 18-month-old mice relative to vehicle, 40 μg/kg
[6] = 18-month-old mice, L4 trabecular bone

For CC[C@H](C)[C@H](NC(=O)[C@H](CCC(=O)O)NC(=O)[C@H](CO)NC(=O)[C@@H](NC(=O)[C@@H](N)CO)C(C)C)C(=O)N[C@@H](CCC(N)=O)C(=O)N[C@@H](CC(C)C)C(=O)N[C@@H](CCSC)C(=O)N[C@@H](Cc1cnc[nH]1)C(=O)N[C@@H](CC(N)=O)C(=O)N[C@@H](CC(C)C)C(=O)NCC(=O)N[C@@H](CCCCN)C(=O)N[C@@H](Cc1cnc[nH]1)C(=O)N[C@@H](CC(C)C)C(=O)N[C@@H](CC(N)=O)C(=O)N[C@@H](CO)C(=O)N[C@@H](CCSC)C(=O)N[C@@H](CCC(=O)O)C(=O)N[C@@H](CCCN=C(N)N)C(=O)N[C@H](C(=O)N[C@@H](CCC(=O)O)C(=O)N[C@@H](Cc1c[nH]c2ccccc12)C(=O)N[C@@H](CC(C)C)C(=O)N[C@@H](CCCN=C(N)N)C(=O)N[C@@H](CCCCN)C(=O)N[C@@H](CCCCN)C(=O)N[C@@H](CC(C)C)C(=O)N[C@@H](CCC(N)=O)C(=O)N[C@@H](CC(=O)O)C(=O)N[C@H](C(=O)N[C@@H](Cc1cnc[nH]1)C(=O)N[C@@H](CC(N)=O)C(=O)N[C@@H](Cc1ccccc1)C(=O)O)C(C)C)C(C)C [PTH (1-34), teriparatide], the “levels of CREB phosphorylation by PTH” value ([1]; IFT88-/- NP cells (disruption of primary cilia)) was “significantly reduced”, the “phosphorylation of CREB (Western blot)” value ([1]; NP cells of wild-type mice) was “significantly stimulated” and the “pSmad2 (Western blot)” value [2] was “increased”. The IVD height [3, 5] was “increased”, the IVD volume [3, 5] was “increased” and the “bone volume (BV/TV)” value [3, 6] was “increase”. The “connectivity (Tb. Con)” value [3, 6] was “increase”, the “IVD thickness in 3D images in five different areas” value ([3]; 18-month-old mice, especially the central area of IVD) was “significant increase” and the IVD morphology ([3]; 40 μg/kg daily for eight weeks) was “significantly improved”. For the same compound, the IVD morphology ([3]; 80 μg/kg daily for eight weeks) was “significantly improved” and the “MRI signal intensity of lumbar IVDs” value [4] was “significantly increased”.
